Measurements: patent US6270780A, “Cosmetic compositions containing resveratrol” (Chesebrough-Pond's USA Co., division of Conopco, priority 1998, dated 2001)
Where two headings read alike, the source gives them in different places.

What was measured:
[1] = system: human promyelocytic leukemia cells; details: Jang et al., Science 275: 218-220, 1997; cited from earlier work
[2] = system: Normal human keratinocytes; experiment: 3H-thymidine incorporation (DNA synthesis) / proliferation of keratinocytes; format: cell-based
Description: The incorporation of ^3 H-thymidine by cultured cells was used as an assay of cell proliferation (both for ZR75 cells and for keratinocytes). Thymidine is one of four deoxynucleosides which are the monomeric units of DNA. Prior to cell division of a somatic cell, the complete genome of the cell undergoing cell division is replicated. This involves large scale DNA synthesis by the cell and enables both daughter cells to receive identical copies of the genetic material. When ^3 H-thymidine is included in the culture media of cells which are synthesizing DNA in preparation for cell division then the labeled thymidine is incorporated into the newly synthesized DNA. The extent of incorporation of ^3 H-thymidine into a population of cells is proportional to the rate of DNA synthesis by this population of cells and therefore an indication of their cellular proliferation.
1. Normal human keratinocytes isolated from neonatal foreskins by trypsin treatment were grown in Dulbecco's modified Eagle's medium (DME)/5% fetal calf serum in the presence of mitomycin C treated 3T3 mouse fibroblasts for establishing dividing keratinocyte colonies. Keratinocytes were grown under the above condition until their third passage.
2. For the experiments, third passage keratinocytes were plated into a serum-free keratinocyte growth medium (KGM; obtained from Clonetics, San Diego, Calif.) containing 0.09 mM calcium. About 30,000 cells were plated into each well of 6 well cell culture plates and grown for 5 days, until the cells reach about 40% confluence.
3. Medium was changed to fresh medium (KBM; obtained from Clonetics) and resveratrol at various concentrations as indicated in Table 2 was added to the medium from a DMSO (Dimethylsulfoxide) stock solution. The final DMSO concentration in the cultures was 0.1%. Control cultures received no resveratrol but were dosed with 0.1% DMSO. Each concentration was tested in three separate wells. After four hours, 1 μCi of ^3 H-thymidine (Amersham Corp., Sp activity 40 Ci/mmol) was added to 1 ml of medium in each well. The cells were incubated for 2 hours. The amount of ^3 H-thymidine associated with the cellular DNA of keratinocytes was assessed as described below.
4. The medium was aspirated, and the wells washed with 1 ml PBS. The DNA and proteins of the cells in the plate were then precipitated by adding 1 ml of ice-cold 10% TCA. The plates were left on ice for 30 minutes to complete the precipitation process. TCA was then aspirated and each well was then washed 4 times with 5% TCA. The cells in the wells were dissolved in 0.5 ml of […] sodium hydroxide. 200 μl was then transferred to a scintillation vial for assessing thymidine incorporation and 25 μl was used for a protein assay using BCA protein assay reagent as described below. 5 ml of a scintillation fluid (Scintiverse) was added to the rest of the solution in the vial, and the vials were counted in a scintillation counter to determine the amount of radioactivity in each vial.
BCA (Bicinchoninic Acid)--Protein Assay
25 μl of cell suspension were placed in a 96 well plate. Standards of BSA (bovine serum albumin) in 0.1N Sodium Hydroxide were also pipetted in triplicate in the same 96 well plate. Pierce BCA protein assay reagent was added (200 μl/well) and plate was incubated for 2 hours at room temperature. Absorbance was read at a wavelength of 570 nm on a Dynatech MR7000 plate reader.
The DNA synthesis rate was then calculated as cpm ^3 H-thymidine incorporated into total cellular DNA/μg of cell protein for each individual well. Mean and standard deviation for each group were also calculated. These numbers were also expressed as percent of control wells. Each data point is expressed as mean of triplicate wells±standard deviation.
The results that were obtained are summarized in Table 2. p values of less than […] were considered to indicate statistical significance.
Example 2 was repeated at various additional concentrations of resveratrol.

Oc1ccc(/C=C/c2cc(O)cc(O)c2)cc1 [Resveratrol, 3,4'5-stilbenetriol]
differentiation of human promyelocytic leukemia cells [1]: induce differentiation of human promyelocytic leukemia cells
inhibition at 50 µM ([2]; Homo sapiens, Keratinocyte, Table 2 Experiment 1, 50 μM): 98%
inhibition at 0.78 µM ([2]; Homo sapiens, Keratinocyte, Table 2 Experiment 2, 0.78 μM): 33%
inhibition at 1.56 µM ([2]; Homo sapiens, Keratinocyte, Table 2 Experiment 2, 1.56 μM, read-out: % inhibition (DNA synthesis)): 48%
inhibition at 3.12 µM ([2]; Homo sapiens, Keratinocyte, Table 2 Experiment 2, 3.12 μM): 70%
inhibition at 6.25 µM ([2]; Homo sapiens, Keratinocyte, Table 2 Experiment 2, 6.25 μM): 86%
inhibition at 12.5 µM ([2]; Homo sapiens, Keratinocyte, Table 2 Experiment 2, 12.5 μM): 94%
inhibition at 25 µM ([2]; Homo sapiens, Keratinocyte, Table 2 Experiment 2, 25 μM): 97%
inhibition at 50 µM ([2]; Homo sapiens, Keratinocyte, Table 2 Experiment 2, 50 μM): 97%
inhibition at 0.1 µM ([2]; Homo sapiens, Keratinocyte, Table 3, 0.1 μM): 5%
inhibition at 0.2 µM ([2]; Homo sapiens, Keratinocyte, Table 3, 0.2 μM): 12%
inhibition at 0.3 µM ([2]; Homo sapiens, Keratinocyte, Table 3, 0.3 μM): 7%
inhibition at 0.4 µM ([2]; Homo sapiens, Keratinocyte, Table 3, 0.4 μM): 14%
inhibition at 0.6 µM ([2]; Homo sapiens, Keratinocyte, Table 3, 0.6 μM): 6%
inhibition at 0.8 µM ([2]; Homo sapiens, Keratinocyte, Table 3, 0.8 μM): 30%
inhibition at 1 µM ([2]; Homo sapiens, Keratinocyte, Table 3, 1.0 μM): 40%
inhibition at 2 µM ([2]; Homo sapiens, Keratinocyte, Table 3, 2.0 μM): 59%
inhibition at 1.56 µM ([2]; Homo sapiens, Keratinocyte, 1.56 μM, read-out: reduced keratinocyte proliferation): ~50%
DNA synthesis (cpm/μg protein) ([2]; Table 2 Experiment 1, 50 μM): 0.62 ± 0.09 cpm/μg protein
DNA synthesis (cpm/μg protein) ([2]; Table 2 Experiment 2, 0.78 μM): 11.57 ± 1.7 cpm/μg protein
DNA synthesis (cpm/μg protein) ([2]; Table 2 Experiment 2, 1.56 μM): 8.89 ± 1.12 cpm/μg protein
DNA synthesis (cpm/μg protein) ([2]; Table 2 Experiment 2, 3.12 μM): 5.11 ± 0.27 cpm/μg protein
DNA synthesis (cpm/μg protein) ([2]; Table 2 Experiment 2, 6.25 μM): 2.45 ± 0.56 cpm/μg protein
DNA synthesis (cpm/μg protein) ([2]; Table 2 Experiment 2, 12.5 μM): 1.07 ± 0.11 cpm/μg protein
DNA synthesis (cpm/μg protein) ([2]; Table 2 Experiment 2, 25 μM): 0.58 ± 0.05 cpm/μg protein
DNA synthesis (cpm/μg protein) ([2]; Table 2 Experiment 2, 50 μM): 0.44 ± 0.12 cpm/μg protein
DNA synthesis (cpm/μg protein) ([2]; Table 3, 0.1 μM): 60.4 ± 4.1 cpm/μg protein
DNA synthesis (cpm/μg protein) ([2]; Table 3, 0.2 μM): 56.3 ± 3.0 cpm/μg protein
DNA synthesis (cpm/μg protein) ([2]; Table 3, 0.3 μM): 58.8 ± 0.4 cpm/μg protein
DNA synthesis (cpm/μg protein) ([2]; Table 3, 0.4 μM): 54.2 ± 1.2 cpm/μg protein
DNA synthesis (cpm/μg protein) ([2]; Table 3, 0.6 μM): 59.3 ± 5.5 cpm/μg protein
DNA synthesis (cpm/μg protein) ([2]; Table 3, 0.8 μM): 44.4 ± 2.6 cpm/μg protein
DNA synthesis (cpm/μg protein) ([2]; Table 3, 1.0 μM): 37.7 ± 4.0 cpm/μg protein
DNA synthesis (cpm/μg protein) ([2]; Table 3, 2.0 μM): 25.7 ± 2.4 cpm/μg protein
inhibition of DNA synthesis ([2]; both experiments, 50 μM): inhibited DNA synthesis completely
DNA synthesis of keratinocytes ([2]; concentrations as low as 1.56 μM): decreased DNA synthesis of keratinocytes significantly
reducing keratinocyte proliferation ([2]; concentrations lower than 0.8 μm (0.000018 wt. %)): not effective at reducing keratinocyte proliferation
